# Non-standard residues stand in square brackets, D forms with d. Residues, ends and D or L forms follow the SMILES beside them.
# Tests used:
# PC-9 OE cell xenografts = experiment: PC-9 OE NSCLC cell xenograft mouse model; assay type: in vivo, BALB/c nude mice; details: PC-9 OE xenograft, 3 mg kg−1 tail vein every two days, five injections
# Excerpt: To evaluate the inhibitory impact of WntSI on the Wnt/β‐catenin pathway in vivo, we established a model of PC‐9 OE cell xenografts in BALB/c nude mice (Figure S12A, Supporting Information). […] In addition, we evaluated the drug safety of CA and WntSI, including recording the weight fluctuation of mice during the treatment period as well as the detection of hematological and biochemical indicators (Figure S12F–H, Supporting Information). […] Furthermore, we conducted IHC staining and IHC scoring (Figure 5F,G) to explore the expression of c‐Met, β‐catenin pathway‐associated proteins, as well as Ki67 in the tumor tissues. […] In addition, we closely monitored the fluctuations in body weight among the four groups of mice throughout the course of treatment (Figure 5H).
# 5×10^6 PC‐9 OE cells were subcutaneously injected into the right flanks of BALB/c nude mice aged 5–6 weeks. The tumor volume was calculated using the equation: volume = 1/2 × length × width^2. Once the tumor volume reached 150–180 mm^3, the mice were randomly grouped. The specific groups are as follows: 1) control (PBS), CA (3 mg kg^−1), and WntSI (3 mg kg^−1); the drug was administered via tail vein every two days for a total five injections; 2) control (normal saline), Gefitinib (25 mg kg^−1 d^−1), Gefitinib combined with Savolitinib (2.5 mg kg^−1 d^−1), and Gefitinib combined with WntSI (3 mg kg^−1, every two days) groups; normal saline, Gefitinib, and Savolitinib were administered by daily gavage, while WntSI was administered via tail vein injection every two days. Tumor growth was monitored daily, and xenografts were collected for formalin‐fixed‐paraffin embedded (FFPE) or snap frozen in liquid nitrogen for subsequent experiments.
# [1] = system: PC-9 OE cells (MET overexpression); experiment: alamarBlue cell viability; assay type: cell-based
# Method: 1 × 10^8 transducing units (TU) of lentivirus were mixed with 40 µL of HitransG P (PC‐9) or HitransG A (NCI‐H1975) infection enhancement solution and 1 mL of complete medium to infect cells in a 6‐well plate.
# In the presented cell experiments, Savolitinib was administered in combination with Gefitinib or Osimertinib at a concentration of 10 µM. The cell viability was determined by alamarBlue assay (Thermo Fisher Scientific).
# [2] = system: PC-9 OE and NCI-H1975 OE cells; experiment: Colony formation assay; assay type: cell-based; details: 7–10 days, n = 3
# Method: The PC‐9 OE and NCI‐H1975 OE cells were seeded at a low density and cultured in serum‐rich medium containing drugs for 7–10 days to assess clone formation. Subsequently, the culture medium was discarded, and the cell colonies were fixed with methanol, stained with 0.1% crystal violet, and washed with distilled water until the background was clear. The number of colonies was quantified using Image J software.
# c-Met = target: T1, c-Met (Homo sapiens, UniProt P08581); experiment: Biotin affinity purification (pull-down) assay; assay type: binding; details: biotin-labeled Tyr-Pep on streptavidin magnetic beads, lysed PC-9 OE cells, 4 °C, 6 h, western blotting
# T1 construct: host or cells: PC-9 OE (PC-9 cells stably transduced with MET OE lentivirus)
# Excerpt: The process was successfully replicated through a coarse‐grained dynamic simulation involving the interaction between Tyr‐Pep and CA molecules, wherein the emergence of LLPS and subsequent self‐assembly into a condensate were observed (Figure 3B). […] Next, the mass ratio of 1:0.5 (Tyr‐Pep to CA) was selected for the preparation of the Wnt supramolecular inhibitor, WntSI, in order to maximize the utilization of condensate size for passive tumor targeting. […] Furthermore, the successful assembly of WntSI was once again confirmed by both Fourier‐transform infrared (FT‐IR) spectrum analysis (Figure S5C, Supporting Information) and UV–vis absorption spectrum analysis (Figure S5D, Supporting Information), providing compelling evidence through the presence of characteristic absorption peaks associated with peptide and CA. More importantly, as our design WntSI was constructed by a reversible supramolecular self‐assembly driven by LLPS, which can disassemble in response to MET (Figure 3A). Alpha Fold 2.0 accurately predicted the strong bonding ability between Tyr‐Pep and c‐Met, as depicted in Figure 3D. This prediction was further substantiated through co‐immunoprecipitation analysis involving biotin‐labeled Tyr‐Pep and c‐Met, as illustrated in Figure S5E (Supporting Information). […] The concentration of CA in their supernatant after centrifugation at 15 000 g was measured using HPLC. […]
# T1 sequence (P08581 25-1390): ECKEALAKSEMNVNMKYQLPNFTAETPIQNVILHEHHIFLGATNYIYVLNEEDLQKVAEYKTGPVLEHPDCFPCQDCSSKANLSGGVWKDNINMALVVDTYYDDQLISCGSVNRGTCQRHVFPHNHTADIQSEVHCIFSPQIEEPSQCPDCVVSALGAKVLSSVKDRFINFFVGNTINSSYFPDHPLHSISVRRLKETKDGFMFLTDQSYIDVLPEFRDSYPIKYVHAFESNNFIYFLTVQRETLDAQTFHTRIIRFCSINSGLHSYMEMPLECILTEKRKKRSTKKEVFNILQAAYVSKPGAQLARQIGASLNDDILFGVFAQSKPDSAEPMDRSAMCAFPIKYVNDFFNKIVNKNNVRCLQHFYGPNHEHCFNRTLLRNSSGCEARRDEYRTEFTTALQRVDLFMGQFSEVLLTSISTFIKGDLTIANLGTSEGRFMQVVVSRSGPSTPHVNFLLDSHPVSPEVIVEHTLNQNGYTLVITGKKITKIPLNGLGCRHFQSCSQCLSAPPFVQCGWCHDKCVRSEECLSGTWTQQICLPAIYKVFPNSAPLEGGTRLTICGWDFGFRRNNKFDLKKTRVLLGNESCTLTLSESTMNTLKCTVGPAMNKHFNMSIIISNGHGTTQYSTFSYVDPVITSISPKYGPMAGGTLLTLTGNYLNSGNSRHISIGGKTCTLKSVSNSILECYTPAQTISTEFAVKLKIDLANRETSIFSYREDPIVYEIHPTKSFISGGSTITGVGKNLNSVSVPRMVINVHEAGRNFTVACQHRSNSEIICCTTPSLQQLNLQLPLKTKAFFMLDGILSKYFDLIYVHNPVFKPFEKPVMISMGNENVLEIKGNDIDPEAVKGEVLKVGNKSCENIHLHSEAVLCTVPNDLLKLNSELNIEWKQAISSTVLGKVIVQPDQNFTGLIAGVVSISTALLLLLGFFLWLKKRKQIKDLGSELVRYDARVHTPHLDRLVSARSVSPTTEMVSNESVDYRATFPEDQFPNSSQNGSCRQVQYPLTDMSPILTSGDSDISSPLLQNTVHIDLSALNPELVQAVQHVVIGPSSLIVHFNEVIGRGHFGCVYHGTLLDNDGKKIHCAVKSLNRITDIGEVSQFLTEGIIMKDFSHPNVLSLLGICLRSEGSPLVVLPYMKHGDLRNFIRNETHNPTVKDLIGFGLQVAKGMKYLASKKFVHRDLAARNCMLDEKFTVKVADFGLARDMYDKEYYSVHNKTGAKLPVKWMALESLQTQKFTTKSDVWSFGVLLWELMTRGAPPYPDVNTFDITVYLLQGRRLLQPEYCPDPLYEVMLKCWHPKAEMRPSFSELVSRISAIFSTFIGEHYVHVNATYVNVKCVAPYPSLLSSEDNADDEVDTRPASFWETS
structure (smiles),measurement,setting,value
"CC(C)c1cc2c(c(O)c1O)[C@@]1(C(=O)O)CCCC(C)(C)[C@@H]1CC2 [CA, carnosic acid]",Levels of ALT and AST,PC-9 OE cell xenografts; n = 3,varying degrees of increase
same,"Levels of white blood cells (WBC), neutrophils and platelets",PC-9 OE cell xenografts; n = 3,significantly lower than those of the control group
same,Weight growth rate of mice during treatment,PC-9 OE cell xenografts; n = 5,slowed down
C[C@@H](c1ccc2nccn2c1)n1nnc2ncc(-c3cnn(C)c3)nc21 [Savolitinib],Impact on the susceptibility of EGFR-TKIs,[1],negligible impact
CC[C@H](C)[C@H](NC(=O)[C@H](CC(C)C)NC(=O)[C@H](CC(N)=O)NC(=O)[C@@H](NC(=O)[C@@H](CCC(=O)O)NC(=O)[C@@H](Cc1c[nH]cn1)NC(=O)[C@@H](CCC(=O)O)NC(=O)[C@@H](Cc1c[nH]cn1)NC(=O)[C@@H](CCC(=O)O)NC(=O)[C@H](N)Cc1c[nH]cn1)C(C)C)C(=O)N[C@@H](CC(N)=O)C(=O)N[C@@H](Cc1ccc(O)cc1)C(=O)N[C@@H](CCC(N)=O)C(=O)N[C@@H](CC(=O)O)C(=O)N[C@@H](CC(=O)O)C(=O)N[C@@H](C)C(=O)N[C@@H](CCC(=O)O)C(=O)N[C@@H](CC(C)C)C(=O)N[C@H](Cc1c[nH]cn1)C(=O)N[C@H](Cc1c[nH]cn1)C(=O)N[C@H](Cc1c[nH]cn1)C(=O)N[C@H](CCCNC(=N)N)C(=O)N[C@H](CCCNC(=N)N)C(=O)N[C@H](CCCNC(=N)N)C(=O)N[C@H](CCCNC(=N)N)C(=O)N[C@H](Cc1c[nH]cn1)C(N)=O [Tyr‐Pep] (H-[dH][dE][dH][dE][dH][dE]VNLINYQDDAEL[dH][dH][dH][dR][dR][dR][dR][dH]-NH2),Suppressive effect on clone formation,[2],no impact
same,Co-immunoprecipitation with c-Met,c-Met,can be recognized by c‐Met
